{"source": "patent US10080779B2", "about": "“Method for increasing the expression of anti-microbial peptides by keratinocytes comprising administering a composition comprising IL-17, TNF-alpha and OSM” (Universite D'Angers, priority 2004, dated 2018)", "key": {"[1]": {"system": "NHEK", "assay": "RT-real time PCR of S100 mRNA in cytokine-stimulated NHEK", "assay_type": "cell-based, human", "description": "(§1) Quantitative real time PCR was carried out using the LightCycler-FastStart DNA Master^PLUS SYBR Green I kit (Roche, Mannheim, Germany). The reaction components were 1× FastStart DNA Master^PLUS SYBR Green I and 0.5 μM of forward and reverse primers for S100A7 (forward 5′-[…]-3′ (SEQ ID No: 9) and reverse 5′-[…]-3′ (SEQ ID No: 10)), S100A8 (Pattyn, Speleman et al. 2003), S100A9 (forward 5′-[…]-3′ (SEQ ID No: 11) and reverse 5′-[…]-3′ (SEQ ID No: 12)), hBD2/4 (forward 5′-[…]-3′ (SEQ ID No: 13) and reverse 5′-[…]-3′ (SEQ ID No: 14)), KRT10 (forward 5′-[…]-3′ (SEQ ID No: 15) and reverse 5′-[…]-3′ (SEQ ID No: 16)), and hydroxymethyl-bilane synthase (HMBS) as a housekeeping gene (Vandesompele, De Preter et al. 2002). After cDNA fluorescent quantification using propidium iodide, 250 ng, 25 ng and 2.5 ng of cDNA were added as PCR template in the LightCycler glass capillaries. The cycling conditions comprised a 10 min polymerase activation at 95° C. and 50 cycles at 95° C. for 10 s, 64° C. for 5 s and 72° C. for 18 s with a single fluorescence measurement. […] A mathematical model was used to determine the relative quantification of target genes compared to HMBS reference gene (Pfaffl 2001)."}, "[2]": {"system": "normal human keratinocytes (NHEK)", "assay": "Cytokine cocktails on S100A7, hBD2/4, KRT10 mRNA in NHEK (RT-Q-PCR)", "assay_type": "cell-based", "conditions": "NHEK 24 hrs, 1 ng/ml each", "description": "as §1\nTo that aim, confluent normal human keratinocytes (NHEK) were treated for 24 hrs with the indicated mix of cytokines (each cytokine at 1 ng/ml final concentration). Total RNA was extracted, reverse-transcribed and the expression of the selected genes was analyzed by real-time PCR as described."}, "[3]": {"system": "NHEK", "assay": "cDNA macroarrays analysis of 36 cytokines on 154 genes in NHEK", "assay_type": "cell-based, human", "conditions": "10 ng/ml, 24 h", "description": "The comparison of the effects of 36 different cytokines on the expression of 154 genes of potential interest for skin physiology was performed using home-made cDNA macroarrays analysis. After cytokine stimulation, total RNA was extracted using TRIzoI® Reagent (Invitrogen life Technologies) and conventional 33P-cDNA target synthesis and hybridization were performed (Boniface et al, 2007). Genes were considered regulated if expression levels differed more than 3-fold relative to untreated control and 3-fold relative to mean background noise."}}}
{"substance": "OSM: human recombinant oncostatin M, cytokine of the IL-6 family", "values": [{"measurement": "Time at which S100A7 mRNA increase starts", "setting": "[1]; 10 ng/ml OSM", "value": 12, "unit": "h"}, {"measurement": "psoriasin/S100A7 mRNA induction above the control value", "setting": "[1]; 10 ng/ml OSM, 96 h", "value": "about 290 folds"}, {"measurement": "OSM concentration at which plateau of S100A7 mRNA is reached", "setting": "[1]; 48-h treatment", "value": 6.3, "unit": "ng/mL"}, {"measurement": "psoriasin/S100A7 mRNA increase above control at plateau", "setting": "[1]; 48-h treatment, 6.3 ng/ml OSM", "value": "fifty fold increase"}, {"measurement": "Decrease of the activity of the 5 cytokines reference mix on omission of the cytokine, S100A7", "setting": "[2]", "value": 3, "unit": "fold"}, {"measurement": "Decrease of the activity of the 5 cytokines reference mix on omission of the cytokine, hBD2/4", "setting": "[2]", "value": 2.5, "unit": "fold"}, {"measurement": "Number of genes (of 154) whose expression is modified with at least a three fold increase or decrease", "setting": "[3]", "value": "at least five genes"}]}
